20 compounds from PubChem BioAssay AID330 (DTP/NCI, 2004) can be followed below.

The experiment relates to P388 leukemia ip, CD2F1 mice, survival T/C. The experiment is described as follows: NCI In Vivo Anticancer Drug Screen. Data for tumor model P388 Leukemia (intraperitoneal) in CD2F1 (CDF1) mice. As to conditions: endpoint: median survival time, higher = longer survival. The gist of the method:
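Mice carrying the transplanted tumor received test compound or vehicle. Survival was recorded in each group, and the value is the treated-group measurement divided by that of the vehicle-treated control group.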

Where [1] appears, read: dose: 60.0 mg/kg/injection, schedule: Q01DX005 (ip), vehicle: saline with Tween-80.
Setting [2] is: dose: 120.0 mg/kg/injection, schedule: Q01DX005 (ip), vehicle: saline with Tween-80.
Where [3] appears, read: dose: 240.0 mg/kg/injection, schedule: Q01DX005 (ip), vehicle: saline with Tween-80.
Where [4] appears, read: dose: 50.0 mg/kg/injection, schedule: Q01DX009 (ip), vehicle: saline with Tween-80.
Where [5] appears, read: dose: 100.0 mg/kg/injection, schedule: Q01DX009 (ip), vehicle: saline with Tween-80.
[6] abbreviates: dose: 200.0 mg/kg/injection, schedule: Q01DX009 (ip), vehicle: saline with Tween-80.
Setting [7] is: dose: 100.0 mg/kg/injection, schedule: Q01DX001 (ip), vehicle: saline with Tween-80.
[8] abbreviates: dose: 200.0 mg/kg/injection, schedule: Q01DX001 (ip), vehicle: saline with Tween-80.
The mark [9] stands for this setting: dose: 400.0 mg/kg/injection, schedule: Q01DX001 (ip), vehicle: saline with Tween-80.
Where [10] appears, read: dose: 30.0 mg/kg/injection, schedule: Q01DX005 (ip), vehicle: saline with Tween-80.

Molecules are shown by their SMILES. Several values for one entry are separate records, joined by “and”; a condition that tells them apart may be missing. Identical values can stand only once. Toxic doses and inconclusive results are not listed.

On to `CCC1(O)CC2CN(CCc3c([nH]c4ccccc34)C(C(=O)OC)(c3cc4c(cc3OC)N(C)C3C(O)(C(N)=O)C(O)C5(CC)C=CCN6CCC43C65)C2)C1` (stereo unspecified) (tested in a mixture with another compound), for which the T/C runs as follows: (dose: 0.06 mg/kg/injection, schedule: Q01DX009 (ip), vehicle: water) 107 % of control; (dose: 0.11 mg/kg/injection, schedule: Q04DX003 (ip), vehicle: clinical formulation) 158 % of control; (dose: 0.13 mg/kg/injection, schedule: Q04DX003 (ip), vehicle: saline) 161 % of control; (dose: 0.18 mg/kg/injection, schedule: Q04DX003 (ip), vehicle: clinical formulation) 161 % of control; (dose: 0.22 mg/kg/injection, schedule: Q01DX009 (ip), vehicle: water) 123 % of control; (dose: 0.25 mg/kg/injection, schedule: Q04DX003 (ip), vehicle: water) 158 % of control. The T/C was 180 % of control (dose: 0.3 mg/kg/injection, schedule: Q04DX003 (ip), vehicle: clinical formulation); 179 % of control (dose: 0.5 mg/kg/injection, schedule: Q04DX003 (ip), vehicle: clinical formulation); 203 % of control and 216 % of control (dose: 0.5 mg/kg/injection, schedule: Q04DX003 (ip), vehicle: saline); 163 % of control (dose: 0.5 mg/kg/injection, schedule: Q04DX003 (ip), vehicle: water); 97 % of control (dose: 0.6 mg/kg/injection, schedule: Q01DX009 (ip), vehicle: water); 177 % of control (dose: 0.67 mg/kg/injection, schedule: Q04DX003 (ip), vehicle: saline). Moreover, the T/C (dose: 0.67 mg/kg/injection, schedule: Q04DX003 (ip), vehicle: water) was 202 % of control; the T/C (dose: 0.83 mg/kg/injection, schedule: Q04DX003 (ip), vehicle: clinical formulation) was 215 % of control; the T/C (dose: 1.0 mg/kg/injection, schedule: Q01DX009 (ip), vehicle: water) is 100 % of control and 223 % of control; the T/C (dose: 1.0 mg/kg/injection, schedule: Q04DX003 (ip), vehicle: saline) was 189 % of control and 191 % of control; the T/C (dose: 1.0 mg/kg/injection, schedule: Q04DX003 (ip), vehicle: water) is 188 % of control and 200 % of control; the T/C (dose: 1.08 mg/kg/injection, schedule: Q04DX003 (ip), vehicle: clinical formulation) was 170 % of control. For the same compound, the T/C was 222 % of control (dose: 1.3 mg/kg/injection, schedule: Q04DX003 (ip), vehicle: water); 184 % of control (dose: 1.5 mg/kg/injection, schedule: Q04DX003 (ip), vehicle: saline); 268 % of control (dose: 1.5 mg/kg/injection, schedule: Q04DX003 (ip), vehicle: water); 173 % of control (dose: 1.8 mg/kg/injection, schedule: Q04DX003 (ip), vehicle: clinical formulation); 186 % of control and 283 % of control (dose: 2.0 mg/kg/injection, schedule: Q04DX003 (ip), vehicle: water); 95 % of control (dose: 3.0 mg/kg/injection, schedule: Q04DX003 (ip), vehicle: clinical formulation). Moreover, the T/C (dose: 3.0 mg/kg/injection, schedule: Q04DX003 (ip), vehicle: water) is 123 % of control.

As for `O=C(Nc1c(Cl)cccc1Cl)Nc1c(Cl)cccc1Cl`, the T/C was 92 % of control under setting [1], 92 % of control under setting [2] and 94 % of control under setting [3].

As for `CC(=O)Nc1ncn[nH]1`, the T/C by setting is: under setting [4], 100 % of control; under setting [5], 90 % of control; (dose: 100.0 mg/kg/injection, schedule: Q04DX003 (ip), vehicle: saline with Tween-80) 100 % of control; under setting [6], 90 % of control; (dose: 200.0 mg/kg/injection, schedule: Q04DX003 (ip), vehicle: saline with Tween-80) 90 % of control.

As to `O=C1c2ccccc2C(=O)N1CCc1ncc[nH]1`, the T/C is, setting by setting: under setting [1], 99 % of control; under setting [2], 99 % of control; under setting [3], 100 % of control.

Regarding `Cc1ccc(C(=NN=C(c2ccc(C)cc2)c2ccc(C)cc2)c2ccc(C)cc2)cc1`, the T/C reads like this: (dose: 100.0 mg/kg/injection, schedule: Q04DX002 (ip), vehicle: saline with Tween-80) 90 % of control; (dose: 200.0 mg/kg/injection, schedule: Q04DX002 (ip), vehicle: saline with Tween-80) 93 % of control.

With `CCCCCCCCCc1cc(=O)[nH]c(=O)[nH]1`, the T/C (dose: 100.0 mg/kg/injection, schedule: Q01DX001 (ip), vehicle: Klucel (hydroxypropylcellulose) (HPC)) was 96 % of control; the T/C (dose: 200.0 mg/kg/injection, schedule: Q01DX001 (ip), vehicle: Klucel (hydroxypropylcellulose) (HPC)) was 96 % of control; the T/C (dose: 400.0 mg/kg/injection, schedule: Q01DX001 (ip), vehicle: Klucel (hydroxypropylcellulose) (HPC)) was 94 % of control.

Take `O=CNC(Cc1ccc(O)cc1)C(=O)O` (stereo unspecified): the T/C by setting is: (dose: 12.5 mg/kg/injection, schedule: Q01DX005 (ip), vehicle: Klucel (hydroxypropylcellulose) (HPC)) 102 % of control and 105 % of control; (dose: 25.0 mg/kg/injection, schedule: Q01DX005 (ip), vehicle: Klucel (hydroxypropylcellulose) (HPC)) 100 % of control and 104 % of control; (dose: 100.0 mg/kg/injection, schedule: Q01DX005 (ip), vehicle: Klucel (hydroxypropylcellulose) (HPC)) 101 % of control and 107 % of control; (dose: 200.0 mg/kg/injection, schedule: Q01DX005 (ip), vehicle: Klucel (hydroxypropylcellulose) (HPC)) 96 % of control.

Consider `COc1cccc(CC(=O)NCCc2ccc(OC)c(OC)c2)c1`, for which the T/C by setting is: under setting [5], 100 % of control; under setting [6], 100 % of control; (dose: 400.0 mg/kg/injection, schedule: Q01DX009 (ip), vehicle: saline with Tween-80) 104 % of control.

Regarding `Cc1nn2c(nnn2CCO)c1-c1ccccc1`, the T/C was 105 % of control (dose: 60.0 mg/kg/injection, schedule: Q01DX005 (ip), vehicle: Klucel (hydroxypropylcellulose) (HPC)); 91 % of control (dose: 120.0 mg/kg/injection, schedule: Q01DX005 (ip), vehicle: Klucel (hydroxypropylcellulose) (HPC)); 91 % of control (dose: 240.0 mg/kg/injection, schedule: Q01DX005 (ip), vehicle: Klucel (hydroxypropylcellulose) (HPC)).

`CC1(C)OCC(N)(CO)CO1`: the T/C reads like this: (dose: 50.0 mg/kg/injection, schedule: Q01DX009 (ip), vehicle: saline) 107 % of control; (dose: 100.0 mg/kg/injection, schedule: Q01DX009 (ip), vehicle: saline) 102 % of control; (dose: 200.0 mg/kg/injection, schedule: Q01DX009 (ip), vehicle: saline) 98 % of control; (dose: 400.0 mg/kg/injection, schedule: Q01DX009 (ip), vehicle: saline) 98 % of control.

On to `Cc1ccc(-c2nc3n(c2/C=N/NC(N)=S)CCS3)cc1`, for which the T/C runs as follows: under setting [7], 109 % of control; under setting [8], 103 % of control; under setting [9], 97 % of control.

For the compound `C[CH2][Sn]([CH2]C)([O][P+](=O)C[Si](C)(C)c1ccccc1)[O][P+](=O)C[Si](C)(C)c1ccccc1` (stereo unspecified), the T/C is 119 % of control under setting [10] and 153 % of control under setting [1].

In the case of `C/C=C(\C)C(=O)N/N=C\c1ccc(O)cc1O`, the T/C was 104 % of control under setting [4], 96 % of control under setting [5] and 91 % of control under setting [6].

As to `[Se]=P(c1ccccc1)(N1CC1)N1CC1`, the T/C reads like this: (dose: 25.0 mg/kg/injection, schedule: Q04DX003 (ip), vehicle: saline with Tween-80) 108 % of control; (dose: 50.0 mg/kg/injection, schedule: Q04DX003 (ip), vehicle: saline with Tween-80) 109 % of control.

With `Cc1ccnc(NC2=CC(=O)C(=O)c3ccccc32)c1`, where the note is “dose: 37.5 mg/kg/injection, schedule: Q01DX009 (ip), vehicle: saline sonified”, the T/C is 122 % of control.

In the case of `c1ccc2c3c(ccc2c1)OCCOCCOCCOc1ccc2ccccc2c1-3`, the T/C reads like this: under setting [7], 98 % of control; under setting [8], 92 % of control; under setting [9], 87 % of control.

In the case of `N#CN=CN(Cc1ccccc1)Cc1ccccc1`, the T/C by setting is: under setting [4], 101 % of control; under setting [5], 96 % of control; under setting [6], 93 % of control.

Consider `CC(=O)N(O)c1ccc(S(N)(=O)=O)cc1`, for which the T/C by setting is: under setting [4], 113 % of control; under setting [5], 100 % of control; under setting [6], 98 % of control.

Turning to `CCOC(=O)C1=NN(c2ccccc2)C(C)(C(=O)OC)C1` (stereo unspecified), the T/C under setting [1] was 98 % of control, the T/C under setting [2] is 98 % of control and the T/C under setting [3] was 95 % of control.

For the compound `COC(=O)C1=CN(CCc2ccc(O)cc2)C(=O)C2C1CC(O)C2C` (stereo unspecified), the T/C by setting is: (dose: 7.5 mg/kg/injection, schedule: Q01DX005 (ip), vehicle: saline with Tween-80) 99 % of control; (dose: 15.0 mg/kg/injection, schedule: Q01DX005 (ip), vehicle: saline with Tween-80) 93 % of control; under setting [10], 94 % of control.
